Measured values from publication PMC8162360, “Total synthesis of biseokeaniamides A–C and late-stage electrochemically-enabled peptide analogue synthesis” (Chemical Science, 2020).
Read-outs that look alike come from different tables or passages of the source. Non-standard residues stand in square brackets, D forms with d. Residues, ends and D or L forms follow the SMILES beside them. *: point of attachment. NMeF = CN[C@@H](Cc1ccccc1)C(=O)O; NMeV = CN[C@H](C(=O)O)C(C)C; Butyryl = CCCC(=O)*; X1 = CN(Cc1cccs1)*

What was measured:
[1] = tested on: HeLa S3 cells; assay: MTT 72 hour viability assay, HeLa S3 cells; type: cell-based
Experimental: (§1) Evaluation of biological activity
(§2) Cell Culture of A549 and HeLa S3 Cells
(§3) 1. A549 cells (ATCC® CCL-185) were cultured at 37 °C with 5% CO2 in DMEM/F12 (Ham)
(§4) medium (Gibco, CAT#11330-032) supplemented with 10% fetal bovine serum (FBS) (Sigma-
(§5) 2. HeLa S3 cells were cultured at 37 °C with 5% CO2 in F-12K nutrient mixture, Kaighn's
(§6) modification medium (Gibco, CAT#21127-022) supplemented with 10% fetal bovine serum
(§7) (FBS) (Sigma-Aldrich, CAT#F9423).
(§8) 3. To subculture cells, media was aspirated and cell monolayers were washed once with dPBS
(§9) (Gibco), and then detached using Trypsin-EDTA (0.25%, Gibco CAT#25200114), followed
(§10) by neutralisation with growth media. Quantitation of cell number was obtained using the Life
(§11) Technologies Countess II automated cell counter.
(§12) MTT 72 Hour Viability Assay
(§13) 1. A549 and HeLa S3 cells were seeded at 600 cells/well in 40 µL into a Corning clear 384-
(§14) well plate (CAT# 3701) using the Biotek EL406, and cultured overnight.
(§15) 2. Cells were then treated with various concentrations of compounds for 72 h. 0.2% DMSO
(§16) and 25 µM Etoposide (Sigma-Aldrich) were used as controls.
(§17) 3. 10 µL of MTT reagent (ThermoFisher, diluted to 2.5 mg/mL in DPBS) was then added to
(§18) cells and incubated at 37 °C for 1.5 h.
4. Plates were then centrifuged at 800 × g for 5 min and the supernatant flicked off. 25 µL of
isopropanol/HCl solution was then added to each well using the Biotek EL406 and the plates
5. Absorbance was then read at 570 nm using the PerkinElmer EnVision Multimode plate
6. Statistical Analysis: Results were normalised to the average blank value (media only
control), and then presented as a percentage of the control (0.2% DMSO (vehicle) treated cells)

[2] = tested on: A549 cells (ATCC CCL-185); type: cell-based; details: 72 h
Experimental: as §1, §2, §3, §4, §5, §6, §7, §8, §9, §10, §11, §12, §13, §14, §15, §16, §17, §18
4. Plates were then centrifuged at 800 × g for 5 min and the supernatant flicked off. 25 µL of […]
5. Absorbance was then read at 570 nm using the PerkinElmer EnVision Multimode plate […]

[3] = cited from earlier work
From the text: Probing the electrochemical generation and reactivity of N,O-acetals | column: pKa (R–OH)[27,28] || The reactivity of the methanol-derived N,O-acetal 6a was examined using a Friedel–Crafts-type reaction with thiophene in the presence of TFA (2.0 equiv.), which serves to regenerate the N-acyliminium for nucleophilic attack. […] How ...

[4] = pKa of the alcohol or carboxylic acid R-OH used in the electrolysis

| SMILES | IC50 ([1]; 72 h) [µM] | IC50 [2] [µM] | pKa (R–OH) [3, 4] | further results |
| --- | --- | --- | --- | --- |
| CCCC(=O)N(C)[C@H](C(=O)N1CCC[C@H]1C(=O)N(C)[C@@H](Cc1ccccc1)C(=O)N[C@@H](CC(C)C)C(=O)N[C@H](C(=O)N(C)Cc1cccs1)C(C)C)C(C)C [Compound 21] (Butyryl-[NMeV]P[NMeF]LV-X1) | 18.4 | 27.4 |  | cytotoxicity compared with natural products 1a-1c ([1]; comparative HeLa cell viability assays, Fig. 1A, MTT, 72 h): enhanced cytotoxicity in relation to the natural products |
| CO [Me, methanol] |  |  | 15.5 |  |
| OCC(F)(F)F [CF3CH2, trifluoroethanol] |  |  |  | pKa (R–OH) [3]: 12.5 |
| OC(C(F)(F)F)C(F)(F)F [(CF3)2CH, hexafluoroisopropanol] |  |  | 9.3 |  |
| O=C(O)C(Cl)(Cl)Cl [Cl3CCO] |  |  | 0.85 |  |
| C=CCCN(C)C(=O)[C@@H](NC(=O)[C@H](CC(C)C)NC(=O)[C@H](Cc1ccccc1)NC(C)=O)C(C)C [Compound 19] | 9.2 | 7.9 |  | cytotoxicity compared with natural products 1a-1c [1]: enhanced cytotoxicity in relation to the natural products |
